Measured values published in ChEMBL document CHEMBL1201862, “PubChem BioAssay data set” (2004).
Activity calls are given as the source filed them. Cut-off read from the data, not from the text of the source, for most assays here: actives have a measured EC50 and inactives only a lower limit.

How the values were obtained:
Genome polyprotein = Genome polyprotein (dengue virus type 2, UniProt P29990); experiment: Dengue-2 NS5 methyltransferase inhibitors, primary screen, biochemical, confirmation dose response (AID 588689); assay type: functional
Sequence of Genome polyprotein (P29990 2492-3391 limits assumed): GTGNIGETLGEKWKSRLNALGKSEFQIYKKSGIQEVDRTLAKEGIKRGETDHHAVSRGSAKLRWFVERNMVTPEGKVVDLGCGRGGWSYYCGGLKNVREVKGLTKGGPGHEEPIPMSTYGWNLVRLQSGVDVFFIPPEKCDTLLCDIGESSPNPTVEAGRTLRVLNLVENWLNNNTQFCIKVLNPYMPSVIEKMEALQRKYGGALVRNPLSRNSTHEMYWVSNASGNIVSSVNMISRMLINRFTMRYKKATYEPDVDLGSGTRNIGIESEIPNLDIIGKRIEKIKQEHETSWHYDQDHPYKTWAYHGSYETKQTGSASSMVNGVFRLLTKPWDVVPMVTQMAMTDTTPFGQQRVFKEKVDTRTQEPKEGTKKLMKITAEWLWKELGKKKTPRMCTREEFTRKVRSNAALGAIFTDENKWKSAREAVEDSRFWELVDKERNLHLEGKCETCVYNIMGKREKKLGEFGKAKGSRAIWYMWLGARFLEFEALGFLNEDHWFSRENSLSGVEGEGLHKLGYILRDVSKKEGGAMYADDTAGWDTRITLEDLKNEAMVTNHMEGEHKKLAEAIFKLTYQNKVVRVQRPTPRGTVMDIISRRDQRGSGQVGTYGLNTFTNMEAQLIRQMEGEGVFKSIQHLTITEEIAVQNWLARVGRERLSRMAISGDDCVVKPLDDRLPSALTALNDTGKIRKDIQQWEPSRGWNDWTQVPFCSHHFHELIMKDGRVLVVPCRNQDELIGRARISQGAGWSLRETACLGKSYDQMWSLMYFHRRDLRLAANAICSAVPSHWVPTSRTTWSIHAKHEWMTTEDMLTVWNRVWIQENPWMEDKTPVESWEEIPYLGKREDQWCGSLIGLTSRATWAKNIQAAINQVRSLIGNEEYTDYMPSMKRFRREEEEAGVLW

[1] = Luminescence Cell-Based Dose Confirmation HTS to Identify Inhibitors of Platelet Dense Granule Release. [Related pubchem assays: 1663 (Primary HTS), 1678 (Summary of Project)]; assay type: functional
[2] = target: Luciferin 4-monooxygenase (Photinus pyralis, UniProt P08659); experiment: firefly luciferase enzyme inhibitors, dose response, biochemical, luminescence (AID 1891)
Sequence of Luciferin 4-monooxygenase (P08659 whole entry): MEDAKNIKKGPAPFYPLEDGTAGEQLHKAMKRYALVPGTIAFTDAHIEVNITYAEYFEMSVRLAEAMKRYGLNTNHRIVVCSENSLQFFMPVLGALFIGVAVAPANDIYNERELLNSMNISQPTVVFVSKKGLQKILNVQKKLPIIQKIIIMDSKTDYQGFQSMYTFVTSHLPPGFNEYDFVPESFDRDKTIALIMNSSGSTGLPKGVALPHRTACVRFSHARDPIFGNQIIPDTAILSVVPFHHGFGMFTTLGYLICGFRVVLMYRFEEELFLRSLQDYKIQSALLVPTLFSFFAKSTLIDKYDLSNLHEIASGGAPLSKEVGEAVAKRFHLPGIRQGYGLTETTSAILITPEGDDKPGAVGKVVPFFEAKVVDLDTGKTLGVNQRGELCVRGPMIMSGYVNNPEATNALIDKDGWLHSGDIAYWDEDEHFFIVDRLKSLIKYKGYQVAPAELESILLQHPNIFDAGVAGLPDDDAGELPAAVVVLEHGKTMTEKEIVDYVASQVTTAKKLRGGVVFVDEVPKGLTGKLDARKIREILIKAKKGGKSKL

[3] = target: FAD-linked sulfhydryl oxidase ALR (Homo sapiens, UniProt P55789); experiment: inhibitors of human ALR sulfhydryl oxidase, dose response, biochemical, H2O2 detection, luminescence, cherry-pick (AID 493248)
Sequence of FAD-linked sulfhydryl oxidase ALR (P55789 whole entry): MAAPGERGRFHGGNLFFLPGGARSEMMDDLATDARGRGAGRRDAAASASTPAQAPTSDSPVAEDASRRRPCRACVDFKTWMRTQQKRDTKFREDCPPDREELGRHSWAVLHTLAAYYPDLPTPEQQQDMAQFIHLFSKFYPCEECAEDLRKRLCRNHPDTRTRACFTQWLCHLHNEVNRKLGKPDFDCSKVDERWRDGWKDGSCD

Cytochrome P450 1A2 = target: T1, Cytochrome P450 1A2 (Homo sapiens, UniProt P05177);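 note: PubChem cytochrome P450 panel assay, CYP1A2 panel member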
T1 sequence (P05177 whole entry): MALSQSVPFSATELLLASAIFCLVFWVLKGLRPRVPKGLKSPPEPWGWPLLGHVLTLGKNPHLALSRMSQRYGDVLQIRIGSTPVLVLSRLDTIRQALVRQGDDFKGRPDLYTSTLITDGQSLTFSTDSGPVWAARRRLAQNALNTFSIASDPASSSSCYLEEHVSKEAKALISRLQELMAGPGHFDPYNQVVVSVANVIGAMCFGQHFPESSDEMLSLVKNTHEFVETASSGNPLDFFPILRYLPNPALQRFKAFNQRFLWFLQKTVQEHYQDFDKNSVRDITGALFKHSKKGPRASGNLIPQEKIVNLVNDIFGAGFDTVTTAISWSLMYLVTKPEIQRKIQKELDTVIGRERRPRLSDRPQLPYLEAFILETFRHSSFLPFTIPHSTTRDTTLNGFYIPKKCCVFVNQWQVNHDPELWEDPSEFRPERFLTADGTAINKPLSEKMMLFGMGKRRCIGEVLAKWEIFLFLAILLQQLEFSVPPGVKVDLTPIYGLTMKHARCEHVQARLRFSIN

Cytochrome P450 3A4 = Cytochrome P450 3A4 (Homo sapiens, UniProt P08684);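 note: CYP3A4 tested as one member of a cytochrome P450 panel screen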
Sequence of Cytochrome P450 3A4 (P08684 whole entry): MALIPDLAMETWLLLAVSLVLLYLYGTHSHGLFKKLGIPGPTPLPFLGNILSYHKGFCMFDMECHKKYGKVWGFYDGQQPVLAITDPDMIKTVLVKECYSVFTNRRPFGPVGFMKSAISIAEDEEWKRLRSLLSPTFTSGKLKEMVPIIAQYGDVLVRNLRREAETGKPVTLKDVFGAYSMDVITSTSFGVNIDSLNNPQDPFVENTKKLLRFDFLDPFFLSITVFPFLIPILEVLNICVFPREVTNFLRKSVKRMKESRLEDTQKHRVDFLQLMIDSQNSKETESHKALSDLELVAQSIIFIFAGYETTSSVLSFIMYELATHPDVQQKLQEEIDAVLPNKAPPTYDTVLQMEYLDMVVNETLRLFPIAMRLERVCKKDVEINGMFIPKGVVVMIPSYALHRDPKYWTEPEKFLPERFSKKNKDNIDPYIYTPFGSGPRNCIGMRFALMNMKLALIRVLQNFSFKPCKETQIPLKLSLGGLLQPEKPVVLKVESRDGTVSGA

BJ [4] = experiment: cytotoxicity toward BJ-TERT fibroblasts, dose response, cell-based, RAS-independent, luminescence (AID 1933); assay type: functional; settings: Homo sapiens
BJ [5] = experiment: cells; assay type: functional, cell-based; settings: Homo sapiens
[6] = cytotoxicity toward DRD oncogenic fibroblasts, dose response, cell-based, non-viral oncogenic, luminescence (AID 1934); assay type: functional; settings: Homo sapiens
[7] = target: T2, Zinc finger protein mex-5 (Caenorhabditis elegans, UniProt Q9XUB2); experiment: MEX-5/TCR-2 RNA interaction inhibitors, dose response, biochemical, C. elegans, fluorescence polarization (AID 1960)
T2 sequence (Q9XUB2 whole entry): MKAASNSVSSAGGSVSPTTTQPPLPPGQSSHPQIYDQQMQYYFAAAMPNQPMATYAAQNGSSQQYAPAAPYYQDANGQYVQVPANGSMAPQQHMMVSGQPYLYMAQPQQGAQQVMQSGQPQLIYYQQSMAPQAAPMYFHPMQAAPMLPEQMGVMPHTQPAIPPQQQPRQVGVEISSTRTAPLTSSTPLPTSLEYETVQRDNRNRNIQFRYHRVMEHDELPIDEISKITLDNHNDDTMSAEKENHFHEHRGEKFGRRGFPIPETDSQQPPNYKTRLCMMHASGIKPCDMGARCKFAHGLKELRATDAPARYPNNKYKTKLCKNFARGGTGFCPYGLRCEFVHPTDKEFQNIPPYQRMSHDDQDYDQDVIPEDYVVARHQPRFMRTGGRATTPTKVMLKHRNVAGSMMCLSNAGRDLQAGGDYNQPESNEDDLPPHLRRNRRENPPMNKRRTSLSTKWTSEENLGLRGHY

[8] = target: T3, Heat shock factor protein 1 (Mus musculus, UniProt P38532); experiment: inhibition of MG132-induced HSE-luciferase signal, confirmation, cell-based, NIH3T3, luminescence, dose retest (AID 2382); assay type: functional;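 note: NIH3T3 fibroblasts with HSF1-driven luciferase reporter stressed by proteasome inhibitor MG132; luminescence from HSF1-driven luciferase expression after 8 hours of MG132 stress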
T3 sequence (P38532 whole entry): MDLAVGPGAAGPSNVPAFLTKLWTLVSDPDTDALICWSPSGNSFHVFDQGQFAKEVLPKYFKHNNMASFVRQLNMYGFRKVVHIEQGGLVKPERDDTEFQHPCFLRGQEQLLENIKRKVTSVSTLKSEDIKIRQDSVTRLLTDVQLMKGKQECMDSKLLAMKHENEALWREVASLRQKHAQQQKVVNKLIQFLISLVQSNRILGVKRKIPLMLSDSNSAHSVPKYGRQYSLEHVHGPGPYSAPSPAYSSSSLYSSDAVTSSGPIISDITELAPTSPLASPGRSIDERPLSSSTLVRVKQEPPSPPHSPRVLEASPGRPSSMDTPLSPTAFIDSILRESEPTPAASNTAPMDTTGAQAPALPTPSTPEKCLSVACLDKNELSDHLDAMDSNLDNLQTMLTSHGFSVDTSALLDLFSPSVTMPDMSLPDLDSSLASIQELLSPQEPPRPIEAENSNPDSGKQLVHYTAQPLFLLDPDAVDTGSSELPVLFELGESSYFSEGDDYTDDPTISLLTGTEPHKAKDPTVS

[9] = target: T4, RNA-binding protein pos-1 (Caenorhabditis elegans, UniProt G5EF15); experiment: inhibitors of POS-1/mex-3 RNA binding, dose response, biochemical, fluorescence polarization (AID 1964);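 note: purified POS-1 fused to maltose binding protein made in E. coli; potency of compounds blocking POS-1 binding to fluorescent RNA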
T4 sequence (G5EF15 whole entry): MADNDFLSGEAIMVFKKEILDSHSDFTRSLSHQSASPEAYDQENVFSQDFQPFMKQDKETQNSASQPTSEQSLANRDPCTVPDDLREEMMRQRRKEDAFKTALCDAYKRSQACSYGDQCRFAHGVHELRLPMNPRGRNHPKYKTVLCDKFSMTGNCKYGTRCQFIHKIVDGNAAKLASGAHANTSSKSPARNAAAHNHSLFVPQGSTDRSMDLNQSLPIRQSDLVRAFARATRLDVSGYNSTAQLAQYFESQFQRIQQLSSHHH

[10] = Shn3 3'UTR reporter inhibitors, dose response, cell-based, Clone20 osteoblasts, firefly luciferase, cherry-picked (AID 624132); assay type: functional;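 note: firefly luciferase luminescence from reporter carrying the Shn3 3'UTR in osteoblasts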
[11] = target: T5, Corticotropin-releasing factor receptor 2/Corticotropin-releasing factor-binding protein (Homo sapiens, UniProt P24387+Q13324); experiment: activators of CRF receptor 2 with binding protein – uHTS hits, confirmation (AID 602473); assay type: functional; settings: read-out: EC50_Mean
T5 sequence (Q13324 whole entry): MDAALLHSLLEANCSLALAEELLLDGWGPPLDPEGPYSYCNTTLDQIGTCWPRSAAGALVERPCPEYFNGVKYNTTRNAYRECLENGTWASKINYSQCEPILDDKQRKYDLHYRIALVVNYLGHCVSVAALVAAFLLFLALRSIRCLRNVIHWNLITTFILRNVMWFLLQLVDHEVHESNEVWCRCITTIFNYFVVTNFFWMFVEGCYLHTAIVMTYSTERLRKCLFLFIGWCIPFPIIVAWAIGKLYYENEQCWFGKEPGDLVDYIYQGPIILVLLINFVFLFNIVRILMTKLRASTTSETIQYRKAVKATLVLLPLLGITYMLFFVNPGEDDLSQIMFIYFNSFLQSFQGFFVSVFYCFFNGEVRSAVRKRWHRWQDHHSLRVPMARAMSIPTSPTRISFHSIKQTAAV
T5 sequence (P24387 whole entry): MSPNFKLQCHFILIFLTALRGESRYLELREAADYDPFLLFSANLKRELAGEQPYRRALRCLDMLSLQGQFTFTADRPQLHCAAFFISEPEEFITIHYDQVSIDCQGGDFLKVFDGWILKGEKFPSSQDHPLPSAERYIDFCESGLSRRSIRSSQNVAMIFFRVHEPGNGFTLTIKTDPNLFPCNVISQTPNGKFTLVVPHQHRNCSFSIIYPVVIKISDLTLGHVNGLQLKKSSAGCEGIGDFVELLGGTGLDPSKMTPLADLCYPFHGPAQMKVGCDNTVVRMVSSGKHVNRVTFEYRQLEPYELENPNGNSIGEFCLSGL

[12] = target: T5, Corticotropin-releasing factor receptor 2/Corticotropin-releasing factor-binding protein; experiment: Dose Response confirmation of uHTS hits for small molecule antagonists of the CRF-binding protein and CRF-R2 receptor complex.; assay type: functional; settings: read-out: IC50_Mean

SMILES: CCOc1cc(/C=C2\C(=O)ON=C2c2ccccc2)ccc1OC
- IC50 (Genome polyprotein): 27.1 µM (active)

SMILES: C[C@H](NC1=NS(=O)(=O)c2ccccc21)C(=O)OCc1cc([N+](=O)[O-])cc2c1OCOC2
- EC50 [1]: > 112 µM (not active)
- EC50 [2]: > 112 µM (not active)

SMILES: CCc1nnc2n1N=C(c1ccc([N+](=O)[O-])cc1)CS2
- AC50 [3]: 6.01 µM (active)

SMILES: CCOC(=O)C1=C(O)/C(=C/c2cc(OC)c(OC)c(OC)c2)N=C1C
- AC50 (Cytochrome P450 1A2): 14.1 µM (inconclusive)
- AC50 (Cytochrome P450 3A4): 17.8 µM (inconclusive)
- EC50 [1]: > 112 µM (not active)
- EC50 [2]: > 112 µM (not active)

SMILES: CCc1ccc(/C=C2\SC(=S)N(CCC(=O)NCCCN3CCOCC3)C2=O)cc1
- EC50 (BJ [4]): 1.24 µM (active)
- EC50 (BJ [5]): > 150 µM (not active)
- EC50 [6]: 5.87 µM (active)

SMILES: CCN=C(S)N(C)CCc1cc2c(c(OC)c1C=C1C(=O)N(C)C(=O)N(C)C1=O)OCO2
- EC50 [7]: > 300 µM (not active)
- EC50 [8]: > 195 µM (not active)
- EC50 [9]: > 300 µM (not active)

SMILES: O=C(NCC1CCCO1)c1cccc(NC(=O)c2ccc(Br)cc2)c1 (configuration not stated)
- EC50 [1]: > 112 µM (not active)
- EC50 [2]: > 112 µM (not active)

SMILES: CCC(C)NC(=O)c1cc(-c2ccccc2O)on1 (configuration not stated)
- EC50 [1]: > 112 µM (not active)
- EC50 [2]: > 112 µM (not active)

SMILES: CCC(=O)N1CCN=C1SCc1cccc(C(F)(F)F)c1
- AC50 [3]: 4.38 µM (active)

SMILES: Nc1nnc(SCC(=O)Nc2ccc(N3CCOCC3)cc2)s1
- AC50 [10]: 16.8 µM (active)

SMILES: CC1(C)CC(=O)C2=C(C1)OC(/N=C/N1CCCC1)=C(C#N)C2c1ccccc1 (configuration not stated)
- EC50 [7]: > 300 µM (not active)
- EC50 [11]: > 53 µM (inactive)
- IC50 [12]: > 47.1 µM (inactive)
- EC50 [9]: > 300 µM (not active)

SMILES: COc1cc(/C=N/N2C(C)CCCC2C)cc(OC)c1O (configuration not stated)
- AC50 [3]: 1.1 µM (active)

SMILES: COc1cc(/C=N/NC(=O)c2cccc(S(=O)(=O)N3CCCC3)c2)cc(OC)c1O
- AC50 [3]: 0.039 µM (active)

SMILES: Cc1ccc(CN2CCN(/N=C/c3ccc(O)c(O)c3)CC2)cc1
- AC50 [3]: 3.11 µM (active)
